pKi: −log10 of the molar value. Values joined by “and” are separate entries in the source; they are usually repeats but may differ in a detail not shown here. Equal values may be shown once. “Also recorded” adds a separate entry of the source.
Experiments:
PDE7B [1] = target: T1, PDE7B (Rattus norvegicus, UniProt A0A0G2JXU0); test: in vitro enzyme assay of PDE7B activity in extracts from rat pulmonary endothelial cells; type: biochemical
T1 construct: endogenous in cells; host or cells: rat pulmonary endothelial cells (extract)
T1 sequence (A0A0G2JXU0 1-446): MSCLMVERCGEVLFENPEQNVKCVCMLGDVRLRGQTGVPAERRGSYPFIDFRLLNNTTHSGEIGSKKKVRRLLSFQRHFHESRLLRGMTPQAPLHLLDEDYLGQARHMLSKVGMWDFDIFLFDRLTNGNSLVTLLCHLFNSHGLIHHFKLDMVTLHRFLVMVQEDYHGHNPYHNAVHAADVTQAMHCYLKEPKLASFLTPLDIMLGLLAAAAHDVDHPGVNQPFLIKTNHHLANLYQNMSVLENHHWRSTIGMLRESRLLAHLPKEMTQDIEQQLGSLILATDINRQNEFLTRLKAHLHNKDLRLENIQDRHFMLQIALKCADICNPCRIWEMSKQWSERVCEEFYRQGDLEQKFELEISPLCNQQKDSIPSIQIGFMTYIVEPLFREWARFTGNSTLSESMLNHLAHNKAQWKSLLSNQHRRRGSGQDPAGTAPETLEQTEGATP
Text: FIG. 13 is the in vitro enzyme assays of PDE7B activity in extracts made from rat pulmonary endothelial cells.

U937 cells = test: TNF alpha release by LPS-treated U937 cells; type: cell-based
Jurkat cells = test: IL2 secretion by concanavalin A treated Jurkat cells; type: cell-based, human; conditions: ConA 10 μg/ml, prostaglandin E2, 24 hours
Text: Jurkat cells, a human T cell lymphoblast-like cell line, increase expression of the cytokine IL2 in response to stimulation by concanavalin A (conA). This effect can be inhibited by elevated cAMP levels, although PDE4 inhibition alone appears to be insufficient to prevent IL2 induction (Kaminuma et al., Immunopharmacology, 1998 January; 38(3):247-52). However, the anti-inflammatory effect of PDE4 inhibitors can be detected using this assay by their ability to enhance the reduction of IL2 secretion by prostaglandin E2. IL2 levels are measured in Jurkat cells (5×10^5 cells/ml) stimulated by 10 μg/ml ConA in the presence of prostaglandin E2, with or without each test compound ([…]). After incubation at 37° C. for 24 hours, the resulting supernatant were collected and kept frozen at −70° C. until the time of assay. IL2 in the supernatants were measured by ELISA and the data is presented as a percentage of the PGE2 treated culture (FIG. 12).

[2] = tested on: PDE4A, PDE4B, PDE4D, PDE7A, PDE7B, PDE8A, PDE3A; test: Summary of PDE inhibitor profile
PDE7B [3] = target: PDE7B (Homo sapiens, UniProt Q9NP56); test: cAMP elevation in yeast PDE7B-expressing strain; type: cell-based; set-up: targets used in the assays are full-length proteins (as opposed to simply the catalytic domain); expressed in transfected cells; host or cells: Schizosaccharomyces pombe
Sequence of PDE7B (Homo sapiens, UniProt Q9NP56) (Q9NP56 whole entry, species assumed, the tested form may be a part): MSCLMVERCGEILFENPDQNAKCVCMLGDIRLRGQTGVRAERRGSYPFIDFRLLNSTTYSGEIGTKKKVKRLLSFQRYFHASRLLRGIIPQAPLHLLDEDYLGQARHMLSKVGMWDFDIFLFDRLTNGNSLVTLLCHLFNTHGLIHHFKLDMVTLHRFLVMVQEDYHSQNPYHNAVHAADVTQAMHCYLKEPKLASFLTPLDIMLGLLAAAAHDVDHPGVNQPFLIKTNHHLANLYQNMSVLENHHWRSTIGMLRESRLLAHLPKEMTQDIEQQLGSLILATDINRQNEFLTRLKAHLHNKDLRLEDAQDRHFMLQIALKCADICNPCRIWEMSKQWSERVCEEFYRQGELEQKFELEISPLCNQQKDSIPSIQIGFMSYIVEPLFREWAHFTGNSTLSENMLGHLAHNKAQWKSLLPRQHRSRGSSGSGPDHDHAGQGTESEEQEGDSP

Lymphoma cells = test: in vitro assay on lymphoma cells (24 hours, Hoechst stain, fsc/ssc); type: cell-based
Method: FIGS. 6A and 6B show the in vitro assay of BC54 action. Lymphoma cells are treated with the drug for 24 hours, then stained with Hoechst dye. The cells form a clearly defined population on the fsc/ssc dot plot. Vincristine treatment was used as a positive control. […] BC54 is referred to in the figure as S54.

[4] = tested on: transplanted tumors (lymphomas); test: in vivo assay in mice with transplanted tumors (lymphomas)
Method: FIGS. 7A and 7B show results of an in vivo assay of BC54 action.
A 7 day experiment was conducted to determine the effect of BC54 on mice having transplanted tumors (lymphomas). Drugs were given i.p. once a day in 60-100 ul of PBS. • 3 animals got just BC54—to assess toxicity • 3 animals injected with lymphoma and treated with BC54 • 3 animals—no treatment • 1 animal—CHOP 0.5 MTD
BC54 dose was 3 ul of 100 mM solution per mouse per injection. […]. […] After 7 days, the untreated mice were terminally ill. The group treated with BC54 looked better although they do show some clinical signs (hunched posture etc). […] Tumor load was evaluated in the spleen and in the peritoneal lymph nodes (FIG. 7).

PBMC cells = test: proliferation and viability of PBMC cells; type: cell-based
Text: FIGS. 8A, 8B and 8C show the effect of BC54 on the proliferation and viability of PBMC cells.

SIVmac239 = test: antiviral activity, SIV p27 ELISA in infected PBMC; type: cell-based, rhesus macaques; conditions: for reduction in viral load: treatment on Day 1 and Day 3, SIV p27 ELISA
Method: PBMC cells were isolated from uninfected rhesus macaques and mitogen stimulated (PHA). The cells were then incubated with SIVmac239 for 2 hours, following which they were washed to remove any free virus. BC54 was then added to the infected cells. Fresh compound was added after 3 days. The antiviral activity was measured by SIV p27 ELISA on day 3 and 7, while the cell viability was determined on day 7 by MTT assay. The treatment of cells on Day 1 and Day 3, leads to a 30-fold and 100-fold reduction in viral load on Days 4 and 7, respectively.

CLL = CLL assay; type: cell-based
[5] = tested on: PDE4A, PDE4B, PDE4D, PDE7A, PDE7B, PDE8A, PDE3A; test: Summary of PDE inhibitor profile; set-up: key: (1): Weak PDE7A inhibitor; (2): Strong PDE7A inhibitor; (3): Lillte/no activity under conditions used; (4): Weak PDE4A inhibitor; conditions: overall classification, Table 18 footnotes
PDE7A = PDE7A (Homo sapiens, UniProt Q13946); test: cAMP response in yeast strain expressing PDE7A; type: cell-based; set-up: targets used in the assays are full-length proteins (as opposed to simply the catalytic domain); expressed in transfected cells; host or cells: Schizosaccharomyces pombe, PDE gene integrated in place of cgs2; conditions: PDE 7A; relative to BRL50481
Sequence of PDE7A (Q13946 whole entry, the tested form may be a part): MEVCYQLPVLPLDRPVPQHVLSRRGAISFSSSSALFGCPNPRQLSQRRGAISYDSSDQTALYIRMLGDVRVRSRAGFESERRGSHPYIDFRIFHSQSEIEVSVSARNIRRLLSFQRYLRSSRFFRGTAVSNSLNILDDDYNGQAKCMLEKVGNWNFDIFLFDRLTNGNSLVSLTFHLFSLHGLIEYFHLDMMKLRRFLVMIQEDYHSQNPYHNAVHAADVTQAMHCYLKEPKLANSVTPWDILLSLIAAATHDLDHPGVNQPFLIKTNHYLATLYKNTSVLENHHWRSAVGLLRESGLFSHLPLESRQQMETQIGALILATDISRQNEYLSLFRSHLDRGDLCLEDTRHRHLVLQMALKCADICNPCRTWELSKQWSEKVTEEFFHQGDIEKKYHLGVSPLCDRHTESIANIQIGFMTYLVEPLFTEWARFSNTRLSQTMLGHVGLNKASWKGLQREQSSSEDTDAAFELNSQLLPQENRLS

For `Cc1sc2ncnc(NC3CCCCC3)c2c1C` [BC28], the “KI lower than that of BRL50481” value (PDE7B [1]; PDE7B, rat pulmonary endothelial cell extracts) was “approximately 100 fold”, the pKi (PDE7B [1]; cell extracts, read-out: KI on PDE7 (PDE7B) from rat pulmonary endothelial cells) was ~6.70 and 6.70 and the “TNF alpha reduction, conclusion in words” value (U937 cells) was “TNFα synergy with PDE4 inhibitors, though not as strong as for BC30”. The “IL2 expression from Jurkat cells, in words” value (Jurkat cells) was “strong reduction”, the “PDE inhibitor profile, in words” value [2] was “potent PDE7B inhibitor” and the “cAMP in yeast PDE7B-expressing strain, in words” value (PDE7B [3]) was “induced cAMP elevation”.
With `CCOC(=O)c1cc2c(=O)n3ccccc3nc2n(C2CCCCC2)/c1=N/C(C)=O` [BC54] the “TNF alpha reduction, conclusion in words” value (U937 cells) was “good activity”, the “apoptosis of lymphoma cells, in words” value (Lymphoma cells) was “induces apoptosis” and the “"live" population gone” value (Lymphoma cells; 24 hours treatment) was ~100%. For the same compound, the toxicity in mice ([4]; 3 ul of 100 mM solution per mouse per injection, i.p. once a day) was “no major signs of toxicity”, the spleen tumor burden ([4]; i.p. once a day, 7 days) was “No significant effect” and the “tumor load in lymph nodes” value ([4]; i.p. once a day, 7 days) was “reduces the tumor load in lymph nodes”. For the same compound, the “clinical appearance after 7 days” value ([4]; lymphoma-bearing mice) was “looked better”, the “efficacy in mouse DLBCL model, in words” value ([4]; mouse, in vivo) was “effective” and the “toxicity to PBMC cells (proliferation and viability)” value (PBMC cells) was “not found to be very toxic”. For the same compound, the “efficacy in SIV cell culture, in words” value (SIVmac239) was “effective”, the “reduction in viral load” value (SIVmac239; Day 4) was 30 fold and the “reduction in viral load” value (SIVmac239; Day 7) was 100 fold. The “activity in CLL assay, in words” value (CLL) was “good activity”, the “PDE inhibitor profile, in words” value [2] was “good PDE4 and PDE7 combination inhibitor; also recorded: affects PDE4D, but is weaker than on other 4 s and 7 s” and the “effect on PDE8A or PDE3A” value [2] was “no effect”.
With `COc1ccc2c(c1)C1(C)CCC(=O)CC1CC2` (single isomer, unassigned) [Compound 11] the “PDE inhibitor profile (Table 18)” value [5] was 11 (3) and the “cAMP Response (% BRL50481) 7A” value (PDE7A) was 89.00 % BRL50481.
